Among the data in paper PMC11243685, “Synthesis and Enzymatic Evaluation of a Small Library of Substituted Phenylsulfonamido-Alkyl Sulfamates towards Carbonic Anhydrase II” (Molecules, 2024) are melting point, Ki and inhibition values, retold here.

For data set [1], the target named is T1, bovine carbonic anhydrase II (Bos taurus, UniProt P00921).
T1 construct: carbonic anhydrase II (bCAII, ≥3000 W-A units/mg from bovine erythrocytes) from Sigma; purchased Sigma (Taufkirchen, Germany); host or cells: isolated from bovine erythrocytes
Description: Enzymatic assay of bCA II inhibition, absorbance at 415 nm.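 As to all read-outs here: enzyme is carbonic anhydrase II isolated from bovine erythrocytes, with its activity followed photometrically at 415 nm.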 The class given is biochemical. The settings on record: for inhibition at 1 µM: bCA II, 1 μM concentration of the inhibitor, triplicate with three technical replicas.
Description: The enzymatic assays have been performed with carbonic anhydrase II (bCAII, ≥3000 W-A units/mg from bovine erythrocytes) from Sigma (Taufkirchen, Germany) using a BMG Labtech Spectrostar Omega apparatus (BMG Labtech, Ortenberg, Germany) measuring λ = 415 nm. Conditions have been described previously [72]. Ki and Ki′ values were determined from Lineweaver–Burk, Dixon and Cornish Bowden plots, respectively.

T1 sequence (P00921 whole entry): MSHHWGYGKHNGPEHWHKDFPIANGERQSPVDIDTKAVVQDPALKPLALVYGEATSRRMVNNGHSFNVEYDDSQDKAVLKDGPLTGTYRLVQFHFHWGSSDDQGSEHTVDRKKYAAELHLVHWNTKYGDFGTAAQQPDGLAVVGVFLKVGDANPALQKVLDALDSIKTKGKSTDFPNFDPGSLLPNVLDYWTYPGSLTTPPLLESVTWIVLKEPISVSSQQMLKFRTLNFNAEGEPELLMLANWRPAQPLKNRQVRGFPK

Turning to `Cc1ccccc1S(=O)(=O)NCCOS(N)(=O)=O` [26b, 2-[(2-Methylphenyl)sulfonamido]ethyl Sulfamate], the melting point lay in the range of 70 to 72 °C. Besides, the Ki in data set [1] (CA II, from Lineweaver–Burk, Dixon and Cornish Bowden plots, read-out: Inhibition constant Ki) is 1100 ± 30 nM. The same compound came in with an inhibition at 1 µM in data set [1] of 69.1 ± 0.7%.
`NS(=O)(=O)OCCCCCCCCCCCCNS(=O)(=O)c1ccccc1` [11b, 12-(Phenylsulfonamido]dodecyl Sulfamate] displayed a melting point of 102 to 103 °C. In addition, testing at 1 µM in data set [1] gave an inhibition of 5.9 ± 0.9%.
Regarding `NS(=O)(=O)OCCCCCCCCCNS(=O)(=O)c1ccc(C23CC4CC(CC(C4)C2)C3)cc1` [78b, 9-[(4-(Adamantan-1-yl)phenyl)sulfonamido]nonyl Sulfamate], the melting point lay within 94 to 96 °C. Moreover, in data set [1], testing at 1 µM gave an inhibition of 36.1 ± 1.8%.
For `Cc1cccc(S(=O)(=O)NCCCCCCCOS(N)(=O)=O)c1` [24b, 7-[(3-Methylphenyl)sulfonamido]heptyl Sulfamate], in that order: 55 to 57 °C and 27.1 ± 0.9%.
With `NS(=O)(=O)OCCCCCCNS(=O)(=O)c1ccccc1` [5b, 6-(Phenylsulfonamido]hexyl Sulfamate], the melting point was in the range of 64 to 66 °C. The compound also had an inhibition at 1 µM in data set [1] of 56 ± 0.5%.
Compound `CC(C)c1ccc(S(=O)(=O)NCCCCCOS(N)(=O)=O)cc1` [36b, 5-[(4-Isopropylphenyl)sulfonamido]pentyl Sulfamate] showed a melting point of 95 to 97 °C. This compound also yielded an inhibition at 1 µM in data set [1] of 40.8 ± 0.6%.
The matching figures for `Cc1ccc(S(=O)(=O)NCCCCCCCOS(N)(=O)=O)cc1` [17b, 7-[(4-Methylphenyl)sulfonamido]heptyl Sulfamate]: 85 to 86 °C and 42.8 ± 0.5%.
As for `NS(=O)(=O)OCCCCCCCCCCCNS(=O)(=O)c1ccccc1` [10b, 11-(Phenylsulfonamido]undecyl Sulfamate], the melting point is 95 to 97 °C. Further, in data set [1], the inhibition at 1 µM was determined as 7.2 ± 0.9%.
For `Cc1ccc(S(=O)(=O)NCCCCCCCCOS(N)(=O)=O)cc1` [18b, 8-[(4-Methylphenyl)sulfonamido]octyl Sulfamate], in that order: 98 to 100 °C and 54.7 ± 0.6%.
In turn, `CC(C)(C)c1ccc(S(=O)(=O)NCCCOS(N)(=O)=O)cc1` [50b, 3-[(4-(tert-Butyl)phenyl)sulfonamido]propyl Sulfamate] gave a melting point of 85 to 86 °C. The compound further returned an inhibition at 1 µM in data set [1] of 63.4 ± 0.6%.
For `CC(C)(C)c1ccc(S(=O)(=O)NCCCCCCOS(N)(=O)=O)cc1` [53b, 6-[(4-(tert-Butyl)phenyl)sulfonamido]hexyl Sulfamate], in that order: 89 to 90 °C and 29.1 ± 0.9%.
Consider `NS(=O)(=O)OCCCCCCCCCNS(=O)(=O)c1ccc(C2CCCCC2)cc1` [75b, 9-[(4-Cyclohexylphenyl)sulfonamido]nonyl Sulfamate], for which the melting point was 88 to 89 °C. Besides, in data set [1], testing at 1 µM gave an inhibition of 32.1 ± 0.8%.
For `Cc1cccc(S(=O)(=O)NCCCCOS(N)(=O)=O)c1` [21b, 4-[(3-Methylphenyl)sulfonamido]butyl Sulfamate], in that order: 62 to 64 °C and 32.2 ± 0.6%.
The matching figures for `CC(C)(C)c1ccc(S(=O)(=O)NCCCCCCCCOS(N)(=O)=O)cc1` [55b, 8-[(4-(tert-Butyl)phenyl)sulfonamido]octyl Sulfamate]: 79 to 81 °C and 21.3 ± 1%.
For `NS(=O)(=O)OCCCCCCCCCCNS(=O)(=O)c1ccc(C23CC4CC(CC(C4)C2)C3)cc1` [79b, 10-[(4-(Adamantan-1-yl)phenyl)sulfonamido]decyl Sulfamate], in that order: 87 to 89 °C and 40.1 ± 0.8%.
In the case of `Cc1ccc(S(=O)(=O)NCCCCOS(N)(=O)=O)cc1` [14b, 4-[(4-Methylphenyl)sulfonamido]butyl Sulfamate], the melting point lay within 66 to 68 °C. 1 µM produced 42.9 ± 0.1% inhibition in data set [1].
For `Cc1ccc(S(=O)(=O)NCCCCCCOS(N)(=O)=O)cc1` [16b, 6-[(4-Methylphenyl)sulfonamido]hexyl Sulfamate], in that order: 49 to 50 °C and 40.3 ± 0.7%.
The matching figures for `Cc1cccc(S(=O)(=O)NCCCOS(N)(=O)=O)c1` [20b, 3-[(3-Methylphenyl)sulfonamido]propyl Sulfamate]: 73 to 74 °C and 48.4 ± 0.1%.
For `Cc1cccc(S(=O)(=O)NCCCCCOS(N)(=O)=O)c1` [22b, 5-[(3-Methylphenyl)sulfonamido]pentyl Sulfamate], in that order: 67 to 68 °C and 49.1 ± 0.2%.
`NS(=O)(=O)OCCCCCCCCCCNS(=O)(=O)c1ccccc1` [9b, 10-(Phenylsulfonamido]decyl Sulfamate] gave a melting point of 89 to 91 °C. This compound also had an inhibition at 1 µM in data set [1] of 10.7 ± 0.4%.
For `NS(=O)(=O)OCCCNS(=O)(=O)c1ccc(C2CCCCC2)cc1` [69b, 3-[(4-Cyclohexylphenyl)sulfonamido]propyl Sulfamate], in that order: 113 to 114 °C and 43.1 ± 1.5%.
`Cc1cccc(S(=O)(=O)NCCCCCCOS(N)(=O)=O)c1` [23b, 6-[(3-Methylphenyl)sulfonamido]hexyl Sulfamate] yielded a melting point of 74 to 75 °C. In data set [1], this compound gave an inhibition at 1 µM of 51.8 ± 0.7%.
